Assay results reported in US20240209302A1, “SYSTEMS, METHODS, AND DEVICES FOR EX VIVO ANALYSIS OF RESECTED TISSUE SAMPLES” (The United States of America,as represented by the …, priority 2020, published 2024).

How the values were obtained:
Assay type in all cases: cell-based, human
[1] = system: resected cholangiocarcinoma tumor and liver capsule; assay: Tivozanib treatment of cholangiocarcinoma tissue in ex vivo perfusion system (H&E, Ki67)
Procedure: In another example, the system of FIG. 7A was used to identify a new target in patients with cholangiocarcinoma. The target is a kinase, SLK, that activates AKT signaling leading to aggressive tumor biology and poor patient outcomes. Although no SLK-specific inhibitor exists, the kinome profiles of available kinase inhibitors was evaluated, and tivozanib was identified. Using tissue from a patient with cholangiocarcinoma in the system of FIG. 7A, tivozanib was evaluated. […] Resected cholangiocarcinoma tumor as well as liver capsule mounted on sample platforms treated with 0-1 mg/ml tivozanib were prepared for IHC, stained with H&E and Ki67 antibody. Cells in control and drug-treated platforms were evaluated for viability, degeneration and necrosis.
In any of the above discussed examples, tissue from system 700 was subject to similar histopathologic evaluations. For example, the tissues were preserved in the 10% neutral buffered formalin, then through the tissue processor and embedded in paraffin and cut at 5-micron sections for hematoxylin and eosin (H&E) slides. Slides were prepared for H&E staining and immunohistochemistry, respectively to detect CD3 (T cells), CD68 (macrophages), Ki-67 and MIBI (mitotic activity). CD3 and CD68 were predilute antibodies as purchased, while Ki-67 and (MIB-1) were run at 1:200 dilution. All stains were done on an automated immunostainer (Ventana Benchmark Ultra). Viability on H&E was defined as preservation of normal tissue architecture, intact nuclei, and normal population of immune cells (qualitative and quantitative). Each sample was compared against day 0 control samples. Ki67 or stains were performed to assess proliferative activity of the tumor cells. Samples stained with Ki67 or MIB1 on day 4 were compared to day 0 samples to confirm no change in proliferative activity.

[2] = system: SDH-B deficient GIST metastases to the peritoneum; assay: Decitabine treatment of GIST tissue in ex vivo perfusion system (H&E, IHC, live imaging); conditions: 0-10 μM in perfusate; tissues harvested after 4 days
Source text: The system of FIG. 7A is also well-suited as a translational tool and/or as a tool for enrollment into clinical trials, especially where pre-clinical models are otherwise non-existent. For example, SDH-B deficient GIST is a rare subtype driven by epigenetic silencing of the gene, unresponsive to conventional agents (imatinib) and with no available cell lines or mouse models. Tissue from a patient with SDH-B deficient GIST was utilized in the system of FIG. 7A to investigate decitabine, a potential treatment option being evaluated for this population. Using early demethylation markers as a read-out, changes associated with decitabine treatment at physiologic and supraphysiologic doses were not detected. […] Sample platforms of tissue from the patient with GIST metastases to the peritoneum were cultured in perfusate supplemented with 0-10 μM decitabine. […] Stack projections of live images of control sample at day 0 and day 3 as well as a sample treated with 5 μM decitabine with fluorophore-conjugated antibodies against CD45 and CD117 also show no changes in the decitabine-treated tissue.
In any of the above discussed examples, tissue from system 700 was subject to similar histopathologic evaluations. […] Viability on H&E was defined as preservation of normal tissue architecture, intact nuclei, and normal population of immune cells (qualitative and quantitative). […]

[3] = system: liver capsule tissue from a colorectal cancer patient with liver metastases (colorectal adenocarcinoma); assay: Check-point inhibitor evaluation in ex vivo perfusion system, colorectal cancer tissue (timeseries imaging); conditions: 5 μg/ml for 4 hr
Procedure: (§1) The system of FIG. 7A is well-suited to evaluate immunotherapeutic agents. Given that check-point inhibitors have made their way into the clinic for seemingly most solid tumors, such inhibitors were evaluated in the system of FIG. 7A using a tumor from a patient with gastric adenocarcinoma and a tumor from a patient with colorectal adenocarcinoma. Neither of these histologies have significant response rates to check-point inhibitors outside of select genomic subpopulations, which was not applicable to either patient in this example. FIGS. 12A-12D illustrates results of this example.
(§2) In the top panel, sample platforms with sidewall peritoneum from a gastric cancer patient were incubated with immune checkpoint inhibitor pembrolizumab for 2 days followed by Alexa488CD44/Alexa594CD45 antibodies. Maximum projections of 2-photon images illustrate the intimate contact between CD45-positive cells and the cancer cells. The bottom panel provides a timeseries montage of images taken from liver capsule tissue mounted on sample platforms from a colorectal cancer patient with liver metastases incubated with 5 μg/ml of pembrolizumab for 4 hr. […]
(§3) Image acquisition was performed on an inverted Leica SP8 setup using multiphoton excitation at 870 nm together with a 25×/0.95 W VISIR lens. […] Images were analyzed using ImageJ software. […]

[4] = system: sidewall peritoneum from a gastric cancer patient (gastric adenocarcinoma); assay: Check-point inhibitor evaluation in ex vivo perfusion system, gastric cancer tissue (2-photon imaging); conditions: incubated for 2 days; Alexa488CD44/Alexa594CD45 antibodies
Procedure: as §1, §2, §3

`COc1cc2nccc(Oc3ccc(NC(=O)Nc4cc(C)on4)c(Cl)c3)c2cc1OC` [tivozanib] was tested, and the “cell death in liver metastases (viability, degeneration, necrosis)” value ([1]; 0-1 mg/ml, FIGS. 12C-12D) was “induces cell death”, the “tumor cell effect at physiologic doses” value ([1]; physiologic doses) was “tumor cell degeneration” and the “tumor cell effect at supraphysiologic concentrations” value ([1]; supraphysiologic concentrations) was “frank necrosis”.
`Nc1ncn([C@H]2C[C@H](O)[C@@H](CO)O2)c(=O)n1` [decitabine] was tested, and the “methylation status of GIST (SDHB, 5-HMC, 5-MC IHC)” value [2] was “no effect” and the “proliferation activity of GIST (Ki67)” value [2] was “no effect”.
With pembrolizumab the “immune cell engagement with tumor cells” value [3] was “Immune cell engagement was observed”, the “tumor cell lysis / apoptosis of CD44-positive cancer cells bound by CD45-positive cells” value [3] was “captured tumor cell lysis” and the “binding of immune cells (CD45-positive) to cancer cells” value [4] was “stimulates binding of immune cells to cancer cells”.
